From paper PMC9120478 (Nature Communications, 2022)

Columns and labels:
TRPV3-F633A = target: T1, TRPV3-F633A (Mus musculus, UniProt Q8K424, F633A); assay: Fura-2 ratiometric Ca2+ uptake, inhibition of 2-APB-evoked response; type: cell-based
T1 construct: expressed in transfected cells; host or cells: HEK 293 S GnTI- cells (baculovirus transduction)
T1 sequence (Q8K424 1-791 F633A): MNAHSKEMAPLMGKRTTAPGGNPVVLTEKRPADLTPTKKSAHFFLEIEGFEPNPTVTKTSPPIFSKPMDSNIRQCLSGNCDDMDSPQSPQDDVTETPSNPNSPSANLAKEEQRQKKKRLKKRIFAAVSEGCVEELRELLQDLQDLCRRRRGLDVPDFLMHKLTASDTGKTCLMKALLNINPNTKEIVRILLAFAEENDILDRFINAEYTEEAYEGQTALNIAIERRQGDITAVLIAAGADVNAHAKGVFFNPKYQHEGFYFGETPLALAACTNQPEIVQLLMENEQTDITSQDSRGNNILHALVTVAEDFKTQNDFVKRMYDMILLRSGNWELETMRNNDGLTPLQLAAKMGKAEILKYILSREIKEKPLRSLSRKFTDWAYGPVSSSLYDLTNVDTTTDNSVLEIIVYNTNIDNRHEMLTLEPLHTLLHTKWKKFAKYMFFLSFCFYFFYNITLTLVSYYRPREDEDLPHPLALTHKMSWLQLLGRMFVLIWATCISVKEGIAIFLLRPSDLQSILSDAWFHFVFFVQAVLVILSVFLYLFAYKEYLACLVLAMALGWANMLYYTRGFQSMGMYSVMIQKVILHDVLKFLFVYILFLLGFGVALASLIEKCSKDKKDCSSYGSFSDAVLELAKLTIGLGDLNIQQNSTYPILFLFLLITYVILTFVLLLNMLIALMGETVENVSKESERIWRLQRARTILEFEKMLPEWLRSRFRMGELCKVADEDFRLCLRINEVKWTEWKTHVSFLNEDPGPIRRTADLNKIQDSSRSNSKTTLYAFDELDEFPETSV
Text: The portal site in TRPV3 has not been previously shown to bind small-molecule inhibitors. This site, however, was originally proposed to be an entry pathway for local anesthetics to the pore of sodium channels[47]–[49] and found to accommodate cannabidiol in TRPV2, a closely-related representative of the vanilloid subfamily of TRP channels. […] We concluded that the Y594A mutation altered gating properties of TRPV3 and excluded this mutant from further analysis.
GFP-free C-terminally strep-tagged wild-type TRPV3, TRPV3-Y564A, TRPV3-Y594A, TRPV3-F633A, TRPV3-I663W, and TRPV3-F666A were expressed in HEK 293 S GnTI^− cells as previously described[41],[42],[53]. In short, 48 h after transduction, 1-ml aliquots of cell suspension were collected by centrifugation at 550 g for 5 min using an Eppendorf 5424 centrifuge. The cells were resuspended in the pre-warmed modified HEPES-buffered saline (HBS) containing 118 mM NaCl, 4.8 mM KCl, 1 mM MgCl2, 5 mM D-glucose, and 10 mM HEPES pH 7.4 and 5 μg/ml Fura-2 AM (Thermo Fisher Scientific) and incubated for 45 min at 37 °C. The Fura-2-loaded cells were then centrifuged for 5 min at 550 g, resuspended in the pre-warmed, modified HBS and incubated again for 30 min at 37 °C in the dark. The cells were subsequently pelleted and washed twice in the modified HBS. The washed cell pellets were kept on ice in the dark before taking an aliquot for fluorescence measurements. […] We used the lower CaCl2 concentration than before[42],[28] (2.5 mM) to minimize non-specific effects, which often appeared as a drift in the Fura-2 signal at high Ca^2+ concentration, presumably due to cell death as a result of calcium overload. Fluorescence measurements were conducted using a QuantaMaster 40 spectrofluorometer (Photon Technology International) at room temperature in a quartz cuvette under constant stirring. After 60 s since the beginning, the recording was paused and 2-APB was added. After the addition of 2-APB, the recording was continued for the additional 140 s. Changes in intracellular Ca^2+ were measured by taking the ratio of fluorescence emitted at 510 nm at the excitation wavelength of 340 nm and 380 nm. […] The data were processed using Origin 9.0 (OriginLab) software.

[1] = test system: TRPV3 I674A gate residue mutant; conditions: cited from earlier work

With CCCCOc1ccc(C(=O)CCN2CCCCC2)cc1 [dyclonine, 1-(4-butoxyphenyl)-3-piperidin-1-ylpropan-1-one] as the compound, how does the “IC50 of F633A compared to wild-type channels” value (TRPV3-F633A) read?
Its value is “three times smaller”.

And the IC50 (TRPV3-F633A; 200 µM 2-APB, n = 6, read-out: IC50, inhibition of F633A mutant)?
The IC50 was 9.8 ± 0.7 µM.

And the “nHill of inhibition curve, F633A” value (TRPV3-F633A; logistic fit, n = 6)?
The value was 1.68 ± 0.19.

What about the “inhibitory potency at I674A mutant” value [1] of the same compound?
The value was “reduced inhibitory potency”.
